These compounds were tested against T1, human LPA1 (Homo sapiens, UniProt Q92633) (assay: LPA1 calcium flux assay). Settings: CHO cells expressing human LPA1, stimulated with 10 nM LPA; read-out: HLPA1 Ca Flux IC50.
T1 construct: the full-length cDNA for human LPA1 was obtained by PCR of the reverse transcription reaction; expressed in transfected cells
Type: cell-based
Procedure, shortened: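 CHO cells stably expressing cloned human LPA1, serum-starved overnight, loaded with Calcium 4 dye 1 h at 37 °C in HBSS/20 mM Hepes with 0.3% fatty-acid-free HSA. Compounds preincubated 30 min at room temperature, then cells stimulated with 10 nM LPA; intracellular Ca2+ read by fluorescence. IC50 from titration curves.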

T1 sequence (Q92633 whole entry): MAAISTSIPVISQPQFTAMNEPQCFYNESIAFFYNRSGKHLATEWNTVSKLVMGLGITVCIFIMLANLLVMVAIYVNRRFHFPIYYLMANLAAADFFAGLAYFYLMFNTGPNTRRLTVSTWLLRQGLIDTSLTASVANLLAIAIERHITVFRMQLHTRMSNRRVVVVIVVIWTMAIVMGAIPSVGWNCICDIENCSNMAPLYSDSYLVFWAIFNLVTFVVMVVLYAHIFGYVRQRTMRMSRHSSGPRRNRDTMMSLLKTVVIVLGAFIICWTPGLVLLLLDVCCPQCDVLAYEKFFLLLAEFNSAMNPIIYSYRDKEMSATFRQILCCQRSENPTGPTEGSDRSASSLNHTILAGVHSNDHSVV

IC50 [nM] | SMILES
1000 to 50000 | Cc1noc(-c2ccc(-c3ccc(C4(C(=O)O)CC4)cc3)cc2)c1CC(=O)N[C@H]1c2ccccc2C[C@H]1O [Compound 1-92, 1-(4′-{4-[((1S,2R)-2-Hydroxy-indan-1-ylcarbamoyl)-methyl]-3-methyl-isoxazol-5-yl}-biphenyl-4-yl)-cyclopropanecarboxylic acid]
300 to 1000 | Cc1noc(-c2ccc(-c3ccc(C4(C(=O)O)CC4)cc3)cc2)c1/C=C/CCc1ccccc1 [Compound 1-95, 1-{4′-[3-Methyl-4-((E)-4-phenyl-but-1-enyl)-isoxazol-5-yl]-biphenyl-4-yl}-cyclopropanecarboxylic acid]
< 300 | Cc1noc(-c2ccc(-c3ccc(C4(C(=O)O)CC4)cc3)cc2)c1CSCC(C)C [Compound 1-96, 1-[4′-(4-Isobutylsulfanylmethyl-3-methyl-isoxazol-5-yl)-biphenyl-4-yl]-cyclopropanecarboxylic acid]
1000 to 50000 | Cc1noc(-c2ccc(-c3ccc(C4(C(=O)O)CC4)cc3)cc2)c1C(C)C(=O)NC(C)c1ccccc1 (centres unmarked) [Compound 1-97, 1-(4′-{3-Methyl-4-[1-(1-phenyl-ethylcarbamoyl)-ethyl]-isoxazol-5-yl}-biphenyl-4-yl)-cyclopropanecarboxylic acid]
< 300 | Cc1noc(-c2ccc(-c3ccc(C4(C(=O)O)CC4)cc3)cc2)c1CNC(=O)C(C)(C)c1ccccc1 [Compound 1-98, 1-(4′-{3-Methyl-4-[(2-methyl-2-phenyl-propionylamino)-methyl]-isoxazol-5-yl}-biphenyl-4-yl)-cyclopropanecarboxylic acid]
< 300 | Cc1noc(-c2ccc(-c3ccc(C4(C(=O)O)CC4)cc3)cc2)c1CC(=O)N[C@H]1CCc2ccccc21 [Compound 1-99, 1-{4′-[4-((S)-Indan-1-ylcarbamoylmethyl)-3-methyl-isoxazol-5-yl]-biphenyl-4-yl}-cyclopropanecarboxylic acid]
< 300 | CCN(Cc1c(C)noc1-c1ccc(-c2ccc(C3(C(=O)O)CC3)cc2)cc1)C[C@H](C)c1ccccc1 [Compound 1-104, 1-[4′-(4-{[Ethyl-((R)-2-phenyl-propyl)-amino]-methyl}-3-methyl-isoxazol-5-yl)-biphenyl-4-yl]-cyclopropanecarboxylic acid]
< 300 | Cc1noc(-c2ccc(-c3ccc(C4(C(=O)O)CC4)cc3)cc2)c1C=CCC(C)c1ccccc1 (centres unmarked) [Compound 1-110, 1-{4′-[3-Methyl-4-(4-phenyl-pent-1-enyl)-isoxazol-5-yl]-biphenyl-4-yl}-cyclopropanecarboxylic acid]
< 300 | Cc1noc(-c2ccc(-c3ccc(C4(C(=O)O)CC4)cc3)cc2)c1/C=C\CC(C)c1ccccc1 (centres unmarked) [Compound 1-112, 1-{4′-[3-Methyl-4-((Z)-4-phenyl-pent-1-enyl)-isoxazol-5-yl]-biphenyl-4-yl}-cyclopropanecarboxylic acid]
1000 to 50000 | Cc1noc(-c2ccc(-c3ccc(C4(C(=O)O)CC4)cc3)cc2)c1/C=C/CC(C)c1ccccc1 (centres unmarked) [Compound 1-113, 1-{4′-[3-Methyl-4-((E)-4-phenyl-pent-1-enyl)-isoxazol-5-yl]-biphenyl-4-yl}-cyclopropanecarboxylic acid]
< 300 | Cc1noc(-c2ccc(-c3ccc(C4(C(=O)O)CC4)cc3)cc2)c1C(O)C/C=C/c1ccccc1 (centres unmarked) [Compound 1-115, 1-{4′-[4-((E)-1-Hydroxy-4-phenyl-but-3-enyl)-3-methyl-isoxazol-5-yl]-biphenyl-4-yl}-cyclopropanecarboxylic acid]
1000 to 50000 | Cc1noc(-c2ccc(-c3ccc(C4(C(=O)O)CC4)cc3)cc2)c1CSCC(=O)c1ccccc1 [Compound 1-120, 1-{4′-[3-Methyl-4-(2-oxo-2-phenyl-ethylsulfanylmethyl)-isoxazol-5-yl]-biphenyl-4-yl}-cyclopropanecarboxylic acid]
< 300 | CCC(C(=O)O)c1ccc(-c2ccc(-c3onc(C)c3CSCCc3ccccc3)cc2)cc1 (centres unmarked) [Compound 1-122, 2-[4′-(3-Methyl-4-phenethylsulfanylmethyl-isoxazol-5-yl)-biphenyl-4-yl]-butyric acid]
< 300 | Cc1noc(-c2ccc(-c3ccc(C(C)C(=O)O)cc3)cc2)c1CSCCc1ccccc1 (centres unmarked) [Compound 1-123, 2-[4′-(3-Methyl-4-phenethylsulfanylmethyl-isoxazol-5-yl)-biphenyl-4-yl]-propionic acid]
1000 to 50000 | Cc1noc(-c2ccc(-c3ccc(C4(C(=O)O)CC4)cc3)cc2)c1CCC(=O)N(C)C1CC1 [Compound 1-127, 1-(4′-{4-[2-(Cyclopropyl-methyl-carbamoyl)-ethyl]-3-methyl-isoxazol-5-yl}-biphenyl-4-yl)-cyclopropanecarboxylic acid]
< 300 | Cc1noc(-c2ccc(-c3ccc(C(C)C(=O)O)cc3)cc2)c1CC(F)(F)CCc1ccccc1 (centres unmarked) [Compound 1-136, 2-{4′-[4-(2,2-Difluoro-4-phenyl-butyl)-3-methyl-isoxazol-5-yl]-biphenyl-4-yl}-propionic acid]

The next lines start with the compound.

SMILES | IC50 [nM]
Cc1noc(-c2ccc(-c3ccc(C4(C(=O)O)CC4)cc3)cc2)c1/C=C\CCc1ccccc1 [Compound 1-94, 1-{4′-[3-Methyl-4-((Z)-4-phenyl-but-1-enyl)-isoxazol-5-yl]-biphenyl-4-yl}-cyclopropanecarboxylic acid] | < 300
Cc1noc(-c2ccc(-c3ccc(C4(C(=O)O)CC4)cc3)cc2)c1CNC(=O)C(C)Oc1ccccc1 (centres unmarked) [Compound 1-100, 1-(4′-{3-Methyl-4-[(2-phenoxy-propionylamino)-methyl]-isoxazol-5-yl}-biphenyl-4-yl)-cyclopropanecarboxylic acid] | 300 to 1000
Cc1noc(-c2ccc(-c3ccc(C4(CC(=O)O)CC4)cc3)cc2)c1/C=C\CCc1ccccc1 [Compound 1-101, (1-{4′-[3-Methyl-4-((Z)-4-phenyl-but-1-enyl)-isoxazol-5-yl]-biphenyl-4-yl}-cyclopropyl)-acetic acid] | < 300
Cc1noc(-c2ccc(-c3ccc(C4(CC(=O)O)CC4)cc3)cc2)c1/C=C/CCc1ccccc1 [Compound 1-102, (1-{4′-[3-Methyl-4-((E)-4-phenyl-but-1-enyl)-isoxazol-5-yl]-biphenyl-4-yl}-cyclopropyl)-acetic acid] | 300 to 1000
Cc1noc(-c2ccc(-c3ccc(C4(C(=O)O)CC4)cc3)cc2)c1CCC(=O)N(C)[C@H](C)c1ccccc1 [Compound 1-105, 1-[4′-(3-Methyl-4-{2-[(R)-methyl-(1-phenyl-ethyl)-carbamoyl]-ethyl}-isoxazol-5-yl)-biphenyl-4-yl]-cyclopropanecarboxylic acid] | < 300
Cc1noc(-c2ccc(-c3ccc(C4(C(=O)O)CC4)cc3)cc2)c1CCC(=O)NC(C)(C)c1ccccc1 [Compound 1-106, 1-(4′-{3-Methyl-4-[2-(1-methyl-1-phenyl-ethylcarbamoyl)-ethyl]-isoxazol-5-yl}-biphenyl-4-yl)-cyclopropanecarboxylic acid] | 1000 to 50000
Cc1noc(-c2ccc(-c3ccc(C4(C(=O)O)CC4)cc3)cc2)c1CCC(=O)N1Cc2ccccc2C1 [Compound 1-107, 1-(4′-{4-[3-(1,3-Dihydro-isoindol-2-yl)-3-oxo-propyl]-3-methyl-isoxazol-5-yl}-biphenyl-4-yl)-cyclopropanecarboxylic acid] | > 50000
Cc1noc(-c2ccc(-c3ccc(CC(=O)O)cc3)cc2)c1CSCCc1ccccc1 [Compound 1-108, [4′-(3-Methyl-4-phenethylsulfanylmethyl-isoxazol-5-yl)-biphenyl-4-yl]-acetic acid] | < 300
Cc1noc(-c2ccc(-c3ccc(CC(=O)O)cc3)cc2)c1CS(=O)(=O)CCc1ccccc1 [Compound 1-109, {4′-[3-Methyl-4-(2-phenyl-ethanesulfonylmethyl)-isoxazol-5-yl]-biphenyl-4-yl}-acetic acid] | 1000 to 50000
Cc1noc(-c2ccc(-c3ccc(C4(C(=O)O)CC4)cc3)cc2)c1C=CC(C)Cc1ccc(C(C)C)cc1 (centres unmarked) [Compound 1-111, 1-(4′-{4-[4-(4-Isopropyl-phenyl)-3-methyl-but-1-enyl]-3-methyl-isoxazol-5-yl}-biphenyl-4-yl)-cyclopropanecarboxylic acid] | 1000 to 50000
Cc1noc(-c2ccc(-c3ccc(C4(C(=O)O)CC4)cc3)cc2)c1CCC(=O)N(C)C(C)(C)c1ccccc1 [Compound 1-118, 1-[4′-(3-Methyl-4-{2-[methyl-(1-methyl-1-phenyl-ethyl)-carbamoyl]-ethyl}-isoxazol-5-yl)-biphenyl-4-yl]-cyclopropanecarboxylic acid] | 1000 to 50000
Cc1noc(-c2ccc(-c3ccc(C4(C(=O)O)CC4)cc3)cc2)c1CCC(=O)N(C)CC1CC1 [Compound 1-119, 1-(4′-{4-[2-(Cyclopropylmethyl-methyl-carbamoyl)-ethyl]-3-methyl-isoxazol-5-yl}-biphenyl-4-yl)-cyclopropanecarboxylic acid] | 300 to 1000
Cc1noc(-c2ccc(-c3ccc(C4(C(=O)O)CC4)cc3)cc2)c1C(=O)CCCc1ccccc1 [Compound 1-124, 1-{4′-[3-Methyl-4-(4-phenyl-butyryl)-isoxazol-5-yl]-biphenyl-4-yl}-cyclopropanecarboxylic acid] | 1000 to 50000
Cc1noc(-c2ccc(-c3ccc(C4(CC(=O)O)CC4)cc3)cc2)c1CSCCc1ccccc1 [Compound 1-125, {1-[4′-(3-Methyl-4-phenethylsulfanylmethyl-isoxazol-5-yl)-biphenyl-4-yl]-cyclopropyl}-acetic acid] | < 300
Cc1noc(-c2ccc(-c3ccc(C(C)(C)C(=O)O)cc3)cc2)c1CSCCc1ccccc1 [Compound 1-133, 2-Methyl-2-[4′-(3-methyl-4-phenethylsulfanylmethyl-isoxazol-5-yl)-biphenyl-4-yl]-propionic acid] | < 300
Cc1noc(-c2ccc(-c3ccc(C4(C(=O)O)CC4)cc3)cc2)c1C/C(CCc1ccccc1)=N/O [Compound 1-134, 1-[4′-(4-{2-[Hydroxyimino]-4-phenyl-butyl}-3-methyl-isoxazol-5-yl)-biphenyl-4-yl]-cyclopropanecarboxylic acid] | < 300

— patent US9624182B2, “Compounds as lysophosphatidic acid receptor antagonists” (Amira Pharmaceuticals, Inc., priority 2009, dated 2017)
